From the NIST ThermoML archive (doi:10.1016/j.jct.2018.11.004)

Test: molar heat capacity at saturation pressure
Conditions: Small (less than 1 g) adiabatic calorimetry

CC(C)[C@@H]1CC[C@@H](C)C[C@H]1O [L-menthol]
Conditions	molar heat capacity [J/K/mol]
5.02 K, Crystal 1	0.8545
5.31 K, Crystal 1	1.027
5.63 K, Crystal 1	1.231
5.95 K, Crystal 1	1.445
6.26 K, Crystal 1	1.675
6.62 K, Crystal 1	1.937
7 K, Crystal 1	2.276
7.37 K, Crystal 1	2.577
7.74 K, Crystal 1	2.937
8.14 K, Crystal 1	3.382
8.58 K, Crystal 1	3.847
9.03 K, Crystal 1	4.373
9.49 K, Crystal 1	4.87
9.99 K, Crystal 1	5.512
10.51 K, Crystal 1	6.205
11.04 K, Crystal 1	6.889
11.61 K, Crystal 1	7.681
12.2 K, Crystal 1	8.523
12.83 K, Crystal 1	9.473
13.48 K, Crystal 1	10.42
14.15 K, Crystal 1	11.42
14.89 K, Crystal 1	12.53
15.66 K, Crystal 1	13.66
16.43 K, Crystal 1	14.93
17.26 K, Crystal 1	16.13
18.12 K, Crystal 1	17.43
19.04 K, Crystal 1	18.89
20 K, Crystal 1	20.23
21.02 K, Crystal 1	21.71
22.08 K, Crystal 1	23.27
23.2 K, Crystal 1	24.92
24.41 K, Crystal 1	26.58
25.66 K, Crystal 1	28.24
26.93 K, Crystal 1	29.92
28.27 K, Crystal 1	31.55
29.67 K, Crystal 1	33.28
31.12 K, Crystal 1	34.98
32.66 K, Crystal 1	36.66
34.28 K, Crystal 1	38.41
36 K, Crystal 1	40.06
37.89 K, Crystal 1	42.03
39.9 K, Crystal 1	43.93
42.02 K, Crystal 1	45.96
44.24 K, Crystal 1	48.03
46.54 K, Crystal 1	50.11
48.92 K, Crystal 1	52.21
51.35 K, Crystal 1	54.32
53.83 K, Crystal 1	56.47
56.32 K, Crystal 1	58.63
58.78 K, Crystal 1	60.81
61.29 K, Crystal 1	62.85
64.03 K, Crystal 1	65.18
66.85 K, Crystal 1	67.74
69.53 K, Crystal 1	70.14
72.08 K, Crystal 1	72.41
74.6 K, Crystal 1	74.48
77.11 K, Crystal 1	76.77
79.66 K, Crystal 1	78.77
79.78 K, Crystal 1	79.07
81.5 K, Crystal 1	80.47
82.26 K, Crystal 1	80.88
83.22 K, Crystal 1	81.89
84.79 K, Crystal 1	83.06
84.94 K, Crystal 1	83.28
86.67 K, Crystal 1	84.77
87.34 K, Crystal 1	85.27
88.39 K, Crystal 1	86.22
89.9 K, Crystal 1	87.37
90.12 K, Crystal 1	87.73
91.85 K, Crystal 1	89.21
92.42 K, Crystal 1	89.76
93.59 K, Crystal 1	90.65
94.94 K, Crystal 1	91.69
95.32 K, Crystal 1	92.09
97.06 K, Crystal 1	93.51
97.47 K, Crystal 1	93.81
98.8 K, Crystal 1	95.01
100.02 K, Crystal 1	95.95
100.55 K, Crystal 1	96.44
102.3 K, Crystal 1	97.81
102.58 K, Crystal 1	98.22
104.04 K, Crystal 1	99.24
105.18 K, Crystal 1	100.4
105.8 K, Crystal 1	100.7
107.55 K, Crystal 1	102
107.78 K, Crystal 1	102.4
109.31 K, Crystal 1	103.5
111.06 K, Crystal 1	104.9
112.82 K, Crystal 1	106.2
114.58 K, Crystal 1	107.7
116.34 K, Crystal 1	109
118.11 K, Crystal 1	110.4
119.87 K, Crystal 1	111.7
121.64 K, Crystal 1	113.1
123.41 K, Crystal 1	114.4
125.18 K, Crystal 1	115.8
126.95 K, Crystal 1	117.2
128.73 K, Crystal 1	118.4
130.5 K, Crystal 1	119.8
132.28 K, Crystal 1	121.1
134.07 K, Crystal 1	122.4
135.85 K, Crystal 1	123.7
137.63 K, Crystal 1	125.1
139.41 K, Crystal 1	126.4
141.2 K, Crystal 1	127.7
142.99 K, Crystal 1	128.9
144.77 K, Crystal 1	130.2
146.56 K, Crystal 1	131.5
148.36 K, Crystal 1	132.8
150.15 K, Crystal 1	134.1
151.94 K, Crystal 1	135.3
153.73 K, Crystal 1	136.6
155.53 K, Crystal 1	137.9
157.32 K, Crystal 1	139.1
159.12 K, Crystal 1	140.4
160.91 K, Crystal 1	141.7
162.72 K, Crystal 1	143
164.52 K, Crystal 1	144.3
166.32 K, Crystal 1	145.5
168.12 K, Crystal 1	146.8
169.92 K, Crystal 1	148
171.73 K, Crystal 1	149.2
173.53 K, Crystal 1	150.5
175.33 K, Crystal 1	151.8
177.14 K, Crystal 1	153.1
178.95 K, Crystal 1	154.4
180.76 K, Crystal 1	155.6
182.56 K, Crystal 1	156.9
184.37 K, Crystal 1	158.2
186.18 K, Crystal 1	159.4
188 K, Crystal 1	160.7
189.81 K, Crystal 1	162.1
191.62 K, Crystal 1	163.3
193.43 K, Crystal 1	164.6
195.25 K, Crystal 1	165.9
197.06 K, Crystal 1	167.2
198.87 K, Crystal 1	168.5
200.69 K, Crystal 1	169.8
202.5 K, Crystal 1	171.1
204.32 K, Crystal 1	172.4
206.14 K, Crystal 1	173.7
207.95 K, Crystal 1	175
209.77 K, Crystal 1	176.4
211.6 K, Crystal 1	177.6
213.42 K, Crystal 1	178.9
215.24 K, Crystal 1	180.2
216.36 K, Crystal 1	180.9
217.07 K, Crystal 1	181.5
218.32 K, Crystal 1	182.5
218.89 K, Crystal 1	182.9
220.14 K, Crystal 1	183.7
220.72 K, Crystal 1	184.2
221.96 K, Crystal 1	185.1
222.55 K, Crystal 1	185.4
223.78 K, Crystal 1	186.5
225.6 K, Crystal 1	187.8
227.43 K, Crystal 1	189.1
229.25 K, Crystal 1	190.5
231.07 K, Crystal 1	191.9
232.89 K, Crystal 1	193.3
234.71 K, Crystal 1	194.7
236.53 K, Crystal 1	196.1
238.35 K, Crystal 1	197.4
240.18 K, Crystal 1	198.8
242 K, Crystal 1	200.2
243.83 K, Crystal 1	201.7
245.65 K, Crystal 1	203.1
247.48 K, Crystal 1	204.5
249.3 K, Crystal 1	206
251.12 K, Crystal 1	207.5
252.95 K, Crystal 1	208.9
254.77 K, Crystal 1	210.4
256.59 K, Crystal 1	212
258.41 K, Crystal 1	213.7
260.23 K, Crystal 1	215.2
262.05 K, Crystal 1	216.8
263.88 K, Crystal 1	218.5
265.7 K, Crystal 1	220.1
267.52 K, Crystal 1	221.7
269.34 K, Crystal 1	223.4
271.17 K, Crystal 1	225.1
272.99 K, Crystal 1	226.5
274.82 K, Crystal 1	227.9
276.64 K, Crystal 1	229.6
278.46 K, Crystal 1	231.1
278.81 K, Crystal 1	231.4
280.29 K, Crystal 1	232.6
280.63 K, Crystal 1	233
282.11 K, Crystal 1	234.2
282.45 K, Crystal 1	234.5
283.93 K, Crystal 1	235.8
284.26 K, Crystal 1	236.1
285.75 K, Crystal 1	237.3
286.08 K, Crystal 1	237.7
287.57 K, Crystal 1	239
287.88 K, Crystal 1	239.5
289.39 K, Crystal 1	240.8
289.68 K, Crystal 1	241.3
290.89 K, Crystal 1	242.4
291.08 K, Crystal 1	242.5
291.22 K, Crystal 1	242.6
291.47 K, Crystal 1	242.9
291.8 K, Crystal 1	243.3
292.76 K, Crystal 1	244.5
293.04 K, Crystal 1	244.4
293.06 K, Crystal 1	244.7
293.25 K, Crystal 1	244.8
293.66 K, Crystal 1	245.4
294.53 K, Crystal 1	246.2
294.86 K, Crystal 1	246.6
294.94 K, Crystal 1	246.6
295.02 K, Crystal 1	246.7
295.44 K, Crystal 1	247.2
296.68 K, Crystal 1	248.4
296.79 K, Crystal 1	248.6
296.82 K, Crystal 1	248.6
298.5 K, Crystal 1	250.6
298.55 K, Crystal 1	250.5
298.69 K, Crystal 1	250.9
312.2 K, Liquid	370.6
314.15 K, Liquid	373.6
316.02 K, Liquid	376.5
317.57 K, Liquid	379.5
317.87 K, Liquid	379.7
318.1 K, Liquid	380.3
318.47 K, Liquid	380.7
318.82 K, Liquid	381.4
319.28 K, Liquid	381.8
319.72 K, Liquid	382.6
320.06 K, Liquid	383.3
320.34 K, Liquid	383.5
320.78 K, Liquid	384.6
321.01 K, Liquid	384.9
321.31 K, Liquid	385.3
321.56 K, Liquid	385.4
322.18 K, Liquid	386.6
322.55 K, Liquid	386.9
323.31 K, Liquid	388.4
323.4 K, Liquid	388.2
323.45 K, Liquid	388.5
323.79 K, Liquid	388.8
324.01 K, Liquid	389.3
325.28 K, Liquid	391.1
325.83 K, Liquid	392
325.85 K, Liquid	392.2
327.12 K, Liquid	393.8
327.67 K, Liquid	394.8
328.34 K, Liquid	395.8
328.95 K, Liquid	396.4
329.49 K, Liquid	397.5
330.79 K, Liquid	399.1
330.84 K, Liquid	399.3
331.3 K, Liquid	400.1
332.62 K, Liquid	401.7
333.11 K, Liquid	402.5
333.33 K, Liquid	402.6
334.46 K, Liquid	404.2
335.81 K, Liquid	406
336.3 K, Liquid	406.5
338.14 K, Liquid	408.8
338.29 K, Liquid	409
339.98 K, Liquid	411.3
340.77 K, Liquid	412.1
341.82 K, Liquid	413.4
343.25 K, Liquid	415.1
343.66 K, Liquid	415.8
345.5 K, Liquid	417.9
345.72 K, Liquid	418.1
347.35 K, Liquid	419.8
348.2 K, Liquid	420.7
349.19 K, Liquid	421.7
350.66 K, Liquid	423
351.04 K, Liquid	423.4
352.88 K, Liquid	425.1
353.12 K, Liquid	425.1
354.73 K, Liquid	426.7
355.58 K, Liquid	427.2
356.58 K, Liquid	428.4
358.04 K, Liquid	429.4
358.43 K, Liquid	429.7
360.27 K, Liquid	431.1
360.49 K, Liquid	431
362.12 K, Liquid	432.6
362.94 K, Liquid	432.8
363.97 K, Liquid	433.8
365.39 K, Liquid	434.2
365.82 K, Liquid	435.5
367.67 K, Liquid	436.2
367.84 K, Liquid	435.7
